± gives the expanded uncertainty stated by the source.

The conditions of this data set: Crystal; visual observation.

With `O=C(O)CC(O)C(=O)O` (stereo unspecified) [hydroxybutanedioic acid], the Normal melting temperature worked out at 130.00 ± 0.5 °C.

These data come from the NIST ThermoML archive (doi:10.1016/j.jct.2015.02.002).
